US20230286973A1, “PROTEIN SECRETION INHIBITORS” (KEZAR LIFE SCIENCES, priority 2020, published 2023)

Tests used:
[1] = system: multiple myeloma cell line U266B1; assay: U266 Cell Viability Assay; type: cell-based, human; conditions: Homo sapiens, U-266, 48 h, U266B1 cells, Celltiter-Glo
How it was run: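 48 h treatment, 37° C./5% CO2, RPMI 1640 + 10% FBS; viability by CellTiter-Glo luminescence.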

[2] = Liver Microsome Stability Assay (human); conditions: human liver microsomes, with NADPH, 1.0 uM compound
Experimental: (§1) Stability of a compound was assessed in the presence of liver microsomes from various sources—mouse, rat, monkey and human liver microsomes. 1.0 uM compound, 0.4% DMSO in 0.1 M Potassium Phosphate with 1.0 mg/mL liver microsomes, were incubated at 37° C. with or without 1 mM NADPH. The samples were quenched at 0, and 30 minutes.

[3] = system: IL-2-FL/Gaussia Luciferase; assay: Dox Induced IL2-FL-Gluc Assay; type: cell-based; conditions: for IC50: 24 hr Dox induction, 293FRT/TO cells, mean, read-out: 24 hr Dox Inducible IL2FLGluc 293FRT/TO: Mean IC50; for 24 hr Dox Inducible IL2FLGluc 293FRT/TO: IL2/PD1: ratio of IL2FLGluc IC50 to PD1ssGluc IC50, '<=>' given where both are I.A.
How it was run: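 Reporter is Gaussia luciferase fused to the 3′ end of full-length IL-2 (aa 1-153), expressed from a doxycycline-inducible T-REx construct in stably selected Flp-In 293 cells. Compounds were co-added with doxycycline and incubated at 37° C, 5% CO2.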

[4] = Liver Microsome Stability Assay (rat); conditions: rat liver microsomes, with NADPH, 1.0 uM compound
Experimental: as §1

[5] = Liver Microsome Stability Assay (monkey); conditions: monkey liver microsomes, with NADPH, 1.0 uM compound
Experimental: as §1

[6] = system: HER3-ss+4aa/Gaussia Luciferase; assay: Dox-Induced Her3-ss-Gluc Assay; type: cell-based; conditions: 24 hr Dox induction; 293FRT/TO cells; mean; read-out: 24 hr Dox Inducible Her3(ss + 4)Gluc 293FRT/TO: Mean IC50
How it was run: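 Expression of a Gaussia luciferase reporter carrying the HER3 signal sequence plus 4 amino acids is induced by doxycycline in stably transfected Flp-In 293 T-REx cells. Compounds are added with doxycycline at 37° C., 5% CO2. Undefined stereocentres denote stereoisomer mixtures.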

[7] = Liver Microsome Stability Assay (mouse); conditions: mouse liver microsomes, with NADPH, 1.0 uM compound
Experimental: as §1

[8] = system: PD1-ss+10aa/Gaussia Luciferase; assay: Dox-Induced PD1-ss-Gluc Assay; type: cell-based; conditions: 24 hr Dox induction; 293FRT/TO cells; mean; read-out: 24 hr Dox Inducible PD1ssGluc 293FRT/TO: Mean IC50
How it was run: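 The cell line was made by transfecting Flp-In 293 T-REx cells with a PD1 signal sequence+10aa–Gaussia luciferase fusion under T-REx control and selecting with hygromycin and blasticidin. Cells were seeded, and next day compound plus doxycycline was added at 37 °C, 5% CO2.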

[9] = system: TNFα-FL/Gaussia Luciferase; assay: Dox Induced TNFα-FL-Gluc Assay; type: cell-based; conditions: for IC50: 24 hr Dox induction, 293FRT/TO cells, mean, read-out: 24 hr Dox Inducible TNFaFLGluc 293FRT/TO: Mean IC50; for 24 hr Dox Inducible TNFaFLGluc 293FRT/TO: TNF/PD1: ratio of TNFaFLGluc IC50 to PD1ssGluc IC50, '<=>' given where both are I.A.
How it was run: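 Cells are seeded one day ahead, then treated with compound plus doxycycline at 37 °C, 5% CO2. The stable Flp-In 293 T-REx line expresses full-length TNFα (amino acids 1-233) with Gaussia luciferase fused to its 3′ end, inducibly via T-REx.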

[10] = system: multiple myeloma cell line NCI-H929; assay: H929 Cell Viability Assay; type: cell-based, human; conditions: Homo sapiens, NCI-H929, 48 h, NCI-H929 cells, Celltiter-Glo
How it was run: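 Plate the myeloma cells in RPMI 1640 with 10% FBS, add serially diluted compound, incubate for 48 hours at 37° C, then add CellTiter-Glo and read luciferase signal.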

Row | EC50 [1] [µM] | Liver Microsome Stability (Multiple Species): Human - % Remaining after 30 min w/NADPH [2] [%] | IC50 [3] [µM] | Liver Microsome Stability (Multiple Species): Rat - % Remaining after 30 min w/NADPH [4] [%] | Liver Microsome Stability (Multiple Species): Monkey - % Remaining after 30 min w/NADPH [5] [%] | IC50 [6] [µM] | Liver Microsome Stability (Multiple Species): Mouse - % Remaining after 30 min w/NADPH [7] [%] | IC50 [8] [µM] | IC50 [9] [µM] | EC50 [10] [µM] | SMILES | 24 hr Dox Inducible IL2FLGluc 293FRT/TO: IL2/PD1 [3] | 24 hr Dox Inducible TNFaFLGluc 293FRT/TO: TNF/PD1 [9]
1 | > 25 | 1.3 | 0.613 | 2.2 | 0.66 | 0.551 | 1.07 | 0.287 | 3.53 | > 22.8 | O=C(Nc1nc([C@H]2CCCN2c2ccccc2)cs1)c1cccn1-c1csc2cnccc12 [Compound C115, (R)-N-(4-(1-phenylpyrrolidin-2-yl)thiazol-2-yl)-1-(thieno[2,3-c]pyridin-3-yl)-1H-pyrrole-2-carboxamide] | 2.1 | 12.3
2 | > 25 | 61.3 | 1.62 | 49.6 | 23.4 | 1.51 | 42.4 | 2.12 | > 25 | > 25 | O=C(Nc1nc([C@H]2CCCN2c2ccccc2)cs1)c1cccn1Cc1ccc(F)cc1 [Compound C119, (R)-1-(4-fluorobenzyl)-N-(4-(1-phenylpyrrolidin-2-yl)thiazol-2-yl)-1H-pyrrole-2-carboxamide] | 0.76 | >11.8
3 | > 25 | 62.8 | 2.06 | 36.8 | 51.1 | 1.83 | 38 | 4.42 | > 25 | > 25 | Cc1cccc(Cn2cccc2C(=O)Nc2nc([C@H]3CCCN3c3ccccc3)cs2)c1 [Compound C120, (R)-1-(3-methylbenzyl)-N-(4-(1-phenylpyrrolidin-2-yl)thiazol-2-yl)-1H-pyrrole-2-carboxamide] | 0.47 | >5.66
4 | > 25 | 64.9 | 1.33 | 50.2 | 44.2 | 1.21 | 52.1 | 2.31 | > 25 | > 25 | O=C(Nc1nc([C@H]2CCCN2c2ccccc2)cs1)c1cccn1Cc1cccc(Br)c1 [Compound C121, (R)-1-(3-bromobenzyl)-N-(4-(1-phenylpyrrolidin-2-yl)thiazol-2-yl)-1H-pyrrole-2-carboxamide] | 0.58 | >10.8
5 | > 25 | 75.8 | 1.35 | 52.6 | 52.2 | 1 | 50.6 | 1.08 | > 25 | > 25 | O=C(Nc1nc([C@H]2CCCN2c2ccccc2)cs1)c1cccn1Cc1cccc(Cl)c1 [Compound C122, (R)-1-(3-chlorobenzyl)-N-(4-(1-phenylpyrrolidin-2-yl)thiazol-2-yl)-1H-pyrrole-2-carboxamide] | 1.3 | >23.3

Continued, molecule first:

Row | SMILES | EC50 [1] [µM] | Liver Microsome Stability (Multiple Species): Human - % Remaining after 30 min w/NADPH [2] [%] | IC50 [3] [µM] | Liver Microsome Stability (Multiple Species): Rat - % Remaining after 30 min w/NADPH [4] [%] | Liver Microsome Stability (Multiple Species): Monkey - % Remaining after 30 min w/NADPH [5] [%] | IC50 [6] [µM] | Liver Microsome Stability (Multiple Species): Mouse - % Remaining after 30 min w/NADPH [7] [%] | IC50 [8] [µM] | IC50 [9] [µM] | EC50 [10] [µM] | 24 hr Dox Inducible IL2FLGluc 293FRT/TO: IL2/PD1 [3] | 24 hr Dox Inducible TNFaFLGluc 293FRT/TO: TNF/PD1 [9]
6 | O=C(Nc1nc(/C=C/c2cn(CCO)cn2)cs1)c1cccn1Cc1ccncc1 [Compound C114, (E)-N-(4-(2-(1-(2-hydroxyethyl)-1H-imidazol-4-yl)vinyl)thiazol-2-yl)-1-(pyridin-4-ylmethyl)-1H-pyrrole-2-carboxamide] | > 25 | 0.67 | > 25 | 19.2 | 0.22 | > 25 | 15.2 | 6.9 | > 25 | > 25 | >3.6 | >3.62
7 | O=C(Nc1nc([C@H]2CCCN2c2ccccc2)cs1)c1cccn1CCCC1COC1 [Compound C116, (R)-1-(3-(oxetan-3-yl)propyl)-N-(4-(1-phenylpyrrolidin-2-yl)thiazol-2-yl)-1H-pyrrole-2-carboxamide] | > 25 | 24.8 | 1.59 | 6.02 | 6.55 | 1.06 | 5.51 | 1.03 | 7.54 | > 25 | 1.5 | 7.3
8 | CC(=O)Nc1ccc(N2CCC[C@@H]2c2csc(NC(=O)c3cccn3C[C@@H](C)CC#N)n2)cc1 [Compound C117, N-(4-((R)-1-(4-acetamidophenyl)pyrrolidin-2-yl)thiazol-2-yl)-1-((S)-3-cyano-2-methylpropyl)-1H-pyrrole-2-carboxamide] | > 25 | 9.81 | 0.0543 | 16.5 | 4.1 | 0.0496 | 7.53 | 0.0256 | 0.275 | 1.13 | 2.1 | 10.7
9 | O=C(Nc1nc([C@H]2CCCN2c2ccccc2)cs1)c1cccn1Cc1cccc(F)c1 [Compound C118, (R)-1-(3-fluorobenzyl)-N-(4-(1-phenylpyrrolidin-2-yl)thiazol-2-yl)-1H-pyrrole-2-carboxamide] | > 25 | 59.7 | 1.01 | 33.5 | 26.9 | 0.732 | 48.1 | 0.719 | 9.78 | > 25 | 1.4 | 13.6
